Like-named read-outs stand apart in the source and are kept apart here.
How the values were obtained:
[1] = tested on: mice; experiment: Forced swimming (FS) test; type: in vivo, Male Swiss mice; conditions: 5 or 10 mg/kg p.o., vs vehicle, p < 0.05
Protocol: Male Swiss mice (weighing between 25–30 g; 6–8 weeks old), provided by Central Animal House of the Federal University of Goiás, were used in all behavioural models. The experimental animals were kept in an intra-laboratory facility cage (32 × 18 × 16 cm) under controlled environmental conditions (23 ± 1 °C, 12 hr light-dark cycle) with access to food and water ad libitum. The experimental protocols (number 104/08) were approved by Ethical Committee of Federal University of Goiás in accordance to the international laws on the care and use of laboratory animals.
In the FS model, mice were randomly divided into 5 groups [control (vehicle), 3 different doses of OAD and IMI]. Mice were exposed to a modified version of FS test[48] after oral administration of vehicle, OAD (5, 10 or 20 mg/kg) or IMI 15 mg/kg. FS apparatus is a cylindrical water container (42 cm in height, 18 cm in diameter) filled with water up to 30 cm (total volume ( [drawing 1] of 7635.06 cm^3 at 24 ± 2 °C). In this model, the initial escape-directed behaviour like swimming and climbing by mouse are generally followed with a relatively passive and immobile posture. The container was cleaned with 10% ethanol solution prior to the exposure of naïve mouse. This test session (6-min duration) was videotaped and the swimming and immobility time was later scored and analyzed.

[2] = tested on: mice; conditions: mouse, in vivo; for behavioural observation: male, Swiss
Protocol: A modified method that was adopted by Malone[57] was used in the present study to evaluate general pharmacological alterations in mice following administration of D1. This test permits the observation of behavioural change, report of possible toxic effect or death occurrence in addition to variations in pharmacological responses to different route of drug administrations. Group of animals were subjected to s.c, i.p, or p.o route of D1 administrations at the doses of 2, 10, 50 or 250 mg/kg or vehicle 10 mL/kg and observed for 7 days.

[3] = tested on: mice; experiment: FS test after AMPT, PCPA, PRAZ or WAY pretreatment (mechanism of antidepressant-like effect of D1); type: in vivo, Male Swiss mice
Protocol: Mice were pretreated (i.p) with saline solution or AMPT 100 mg/kg (catecholamine depletor) 4 h prior to the oral administration of vehicle 10 mL/kg or D1 5 mg/kg. […] In a separate experiment, pretreatment (i.p) of mice with saline solution or PCPA 100 mg/kg (serotonin depletor) for four consecutive days prior to oral administration of vehicle or D1 5 mg/kg was used to investigate effect of serotonin depletion on antidepressant-like activity of this OAD. […] In all the four experiments, oral administration of vehicle or D1 5 mg/kg was followed by FS test (60 min interval between p.o. treatment and behavioural testing).

[4] = target: T1, 5-HT1A receptor (Mus musculus, UniProt Q64264); experiment: [35S]GTPγS binding to mice hippocampal membranes; type: biochemical
T1 construct: The hippocampi of mice were dissected and homogenized in 5 volumes of ice-cold buffer; from tissue; host or cells: mouse hippocampus membranes
T1 sequence (Q64264 1-421): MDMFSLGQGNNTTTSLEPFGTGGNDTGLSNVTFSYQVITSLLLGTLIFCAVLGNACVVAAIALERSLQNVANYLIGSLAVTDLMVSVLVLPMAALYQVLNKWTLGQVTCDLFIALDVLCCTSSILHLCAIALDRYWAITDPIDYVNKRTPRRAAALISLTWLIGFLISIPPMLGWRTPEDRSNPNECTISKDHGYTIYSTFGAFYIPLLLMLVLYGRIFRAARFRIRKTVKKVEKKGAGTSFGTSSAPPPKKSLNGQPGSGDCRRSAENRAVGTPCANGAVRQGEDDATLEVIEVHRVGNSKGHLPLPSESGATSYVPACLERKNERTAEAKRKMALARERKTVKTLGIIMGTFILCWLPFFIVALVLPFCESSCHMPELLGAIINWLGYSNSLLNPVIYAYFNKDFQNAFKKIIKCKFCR
Protocol: The hippocampi of mice were dissected and homogenized in 5 volumes of ice-cold buffer (25 mM Tris-HCl, 0.5 mM dithiothreitol, and 0.5 mM EGTA, pH 7.4). The homogenate was centrifuged (1,000 × g for 5 min at 4 °C) and the resultant supernatant was removed. The remaining pellet was resuspended in buffer, homogenized, and centrifuged. The two supernatants obtained were combined and centrifuged at […] at 4 °C and the pellets were resuspended in membrane preparation buffer. The volumes were adjusted prior to the determination of protein concentration by Bradford method[56] and stored at −80 °C until required. […] The reactions were initiated by the addition of 25 μl [^35S]-GTPγS, followed by a 20 min incubation at 20 °C. The reactions were terminated by rapid filtration. The filters were placed in liquid scintillation cocktail in counting vials. The liquid scintillation spectroscopy was used to measure the radioactivity bound to the filter paper after 10 hour.

[5] = target: T2, recombinant human MAO-A (Homo sapiens, UniProt P21397); experiment: Kynuramine deamination inhibition assay, MAO-A; type: biochemical; conditions: 80 μM kynuramine, pH 7.4, 37 °C
T2 construct: purchased BD Biosciences Bedford, MA, USA
T2 sequence (P21397 1-527): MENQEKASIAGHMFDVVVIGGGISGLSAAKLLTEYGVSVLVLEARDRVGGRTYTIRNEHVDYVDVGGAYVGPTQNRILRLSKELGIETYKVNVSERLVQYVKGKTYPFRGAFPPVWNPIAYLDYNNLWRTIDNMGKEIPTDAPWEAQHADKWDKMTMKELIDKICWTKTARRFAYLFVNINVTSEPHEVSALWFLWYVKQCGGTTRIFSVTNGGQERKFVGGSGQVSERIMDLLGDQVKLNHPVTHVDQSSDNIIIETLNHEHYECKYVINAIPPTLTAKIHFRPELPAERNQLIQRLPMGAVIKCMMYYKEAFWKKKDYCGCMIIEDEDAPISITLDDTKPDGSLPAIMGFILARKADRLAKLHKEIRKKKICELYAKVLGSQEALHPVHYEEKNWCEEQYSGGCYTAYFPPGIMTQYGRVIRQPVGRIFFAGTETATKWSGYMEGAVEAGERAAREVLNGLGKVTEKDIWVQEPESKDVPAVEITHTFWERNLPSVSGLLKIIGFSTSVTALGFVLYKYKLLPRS
Protocol: The assay was performed with the addition of inhibitor. Inhibition was calculated as percent of product formation compared to the corresponding control (enzyme-substrate reaction) without the inhibitors. The reactions were carried out in 0.1 M potassium phosphate buffer at pH 7.4. […] The compounds were dissolved in DMSO. The total reaction volume was 200 μL yielding a final DMSO concentration of 1.0% in the reaction mixture.

C=CC(=O)O[C@H]1CC[C@]2(C)[C@H]3CC=C4[C@@H]5CC(C)(C)CC[C@]5(C(=O)O)CC[C@@]4(C)[C@]3(C)CC[C@H]2C1(C)C [D1, Oleanolic acid acrylate]
immobility time in the FS test [1]: reduction | swimming time in the FS test [1]: significant increase | behavioural observation [2]: Total recovery from the effects of D1 without any sign of toxicity, weight gain or death occurence | behavioural observation ([2]; 50 mg/kg, 1 hr): Effects after 30 min of administrations persisted | behavioural observation ([2]; 250 mg/kg, 1 hr): Effects after 30 min of administrations persisted | behavioural observation (text) ([2]; 250 mg/kg): reduction in exploratory activity | effect of AMPT pretreatment on antidepressant-like effect (swimming time) ([3]; AMPT 100 mg/kg i.p. + D1 5 mg/kg p.o. versus SAL + D1, p > 0.05): did not attenuate | effect of PCPA pretreatment on antidepressant-like effect (swimming time) ([3]; PCPA 100 mg/kg i.p. four days + D1 5 mg/kg p.o. versus SAL + D1, p > 0.05): did not block | effect of PRAZ pretreatment on antidepressant-like effect (swimming time) ([3]; PRAZ 1 mg/kg i.p. + D1 5 mg/kg p.o. versus SAL + D1, p > 0.05): did not block | swimming time in the FS test ([3]; SAL + D1 5 mg/kg p.o. versus SAL + Vehicle, p < 0.05): increased the swimming time | effect of WAY pretreatment on antidepressant-like effect (swimming time) ([3]; WAY 0.3 mg/kg i.p. + D1 5 mg/kg p.o. versus SAL + D1, p < 0.05): significant blockade | EC50 ([4]; mice hippocampal membranes, read-out: Agonist potency (pEC50 ± SEM) (converted)): 0.794 µM | Emax ([4]; percentage of that produced by 10 μM (+)8-OH-DPAT, read-out: Intrinsic activity (Emax ± SEM in %)): 26 ± 2% | IC50 [5]: 48.8 ± 1.94 µM
